Assay results: patent US9884868B2, “TGF-beta inhibitors” (Rigel Pharmaceuticals, Inc., priority 2015, dated 2018)
Where a name gives a salt, the structure may show the parent alone.

These molecules were tested against HIS-TGF-βR1 T204D (Homo sapiens (Human), UniProt P36897, T204D) (assay: HTRF probe displacement assay with HIS-TGF-βR1 T204D). Settings: not given.
Chain of HIS-TGF-βR1 T204D (P36897 34-503 T204D): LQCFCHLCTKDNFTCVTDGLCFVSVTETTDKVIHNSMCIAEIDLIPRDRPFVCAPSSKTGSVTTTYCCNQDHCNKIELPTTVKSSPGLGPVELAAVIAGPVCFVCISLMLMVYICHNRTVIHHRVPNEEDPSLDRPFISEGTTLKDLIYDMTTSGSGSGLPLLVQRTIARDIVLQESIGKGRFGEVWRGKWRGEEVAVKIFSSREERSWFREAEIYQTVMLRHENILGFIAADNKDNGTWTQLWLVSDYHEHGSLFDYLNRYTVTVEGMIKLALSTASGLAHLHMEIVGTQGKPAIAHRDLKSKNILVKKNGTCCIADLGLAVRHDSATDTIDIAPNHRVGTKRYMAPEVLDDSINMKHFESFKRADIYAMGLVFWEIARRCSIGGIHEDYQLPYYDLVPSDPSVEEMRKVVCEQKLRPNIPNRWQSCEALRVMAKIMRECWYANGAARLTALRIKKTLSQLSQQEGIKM
For `N#Cc1cnc2ccc(-c3c(-c4ccc(F)cc4F)ncn3CC(F)F)cn12` [227′, 6-(1-(2,2-difluoroethyl)-4-(2,4-difluorophenyl)-1H-imidazol-5-yl)imidazo[1,2-a]pyridine-3-carbonitrile], the IC50 was 8.1 nM.

Same assay, conditions: read-out: TGFbr1 IC50; HTRF probe displacement, 1 nM HIS-TGF-βR1 T204D, 1 hour at room temperature
Work on `NC(=O)c1cnc2ccc(-c3c(-c4ccc(F)cc4)ncn3CCCF)cn12` [162′, 6-(4-(4-fluorophenyl)-1-(3-fluoropropyl)-1H-imidazol-5-yl)imidazo[1,2-a]pyridine-3-carboxamide] yielded an IC50 of 1.9 nM. `N#Cc1cnc2ccc(-c3c(-c4cc(Cl)cc(Cl)c4)ncn3CC(F)F)nn12` [238′, 6-(4-(3,5-dichlorophenyl)-1-(2,2-difluoroethyl)-1H-imidazol-5-yl)imidazo[1,2-b]pyridazine-3-carbonitrile] was tested, and the IC50 was 39.7 nM. `NC(=O)c1cnc2ccc(-c3c(-c4ccc(F)cc4)ncn3C3CNC3)nn12` [195B′, 6-(1-(azetidin-3-yl)-4-(4-fluorophenyl)-1H-imidazol-5-yl)imidazo[1,2-b]pyridazine-3-carboxamide] was tested, and the IC50 was 45.4 nM. `CC(C)(F)Cn1cnc(-c2ccc(F)cc2)c1-c1ccc2ncc(C#N)n2n1` [23′, 6-(1-(2-fluoro-2-methylpropyl)-4-(4-fluorophenyl)-1H-imidazol-5-yl)imidazo[1,2-b]pyridazine-3-carbonitrile] was tested, and the IC50 was 1.9 nM. Work on `NC(=O)c1cnc2ccc(-c3c(-c4ccc(F)c(Cl)c4)ncn3CCF)nn12` [114′, 6-(4-(3-chloro-4-fluorophenyl)-1-(2-fluoroethyl)-1H-imidazol-5-yl)imidazo[1,2-b]pyridazine-3-carboxamide] yielded an IC50 of 1.3 nM. Work on `NC(=O)c1cnc2ccc(-c3c(-c4ccc(F)cc4)ncn3CCO)nn12` [133′, 6-(4-(4-fluorophenyl)-1-(2-hydroxyethyl)-1H-imidazol-5-yl)imidazo[1,2-b]pyridazine-3-carboxamide] yielded an IC50 of 3.1 nM. `N#Cc1ccc(-c2ncn(CC(F)F)c2-c2ccc3ncc(C#N)n3n2)cc1` [258′, 6-(4-(4-cyanophenyl)-1-(2,2-difluoroethyl)-1H-imidazol-5-yl)imidazo[1,2-b]pyridazine-3-carbonitrile] showed an IC50 of 356 nM. Molecule `CONC(=O)c1cnc2ccc(-c3c(-c4ccc(F)cc4)ncn3CC(F)F)nn12` [209′, 6-(1-(2,2-difluoroethyl)-4-(4-fluorophenyl)-1H-imidazol-5-yl)-N-methoxyimidazo[1,2-b]pyridazine-3-carboxamide] has an IC50 of 0.7 nM. With `CC(C)C(C)n1cnc(-c2ccc(F)cc2)c1-c1ccc2ncc(C#N)n2c1` (centres unmarked) [76′, 6-(4-(4-fluorophenyl)-1-(3-methylbutan-2-yl)-1H-imidazol-5-yl)imidazo[1,2-a]pyridine-3-carbonitrile] the IC50 was 999 nM. In the case of `CC(O)CCn1cnc(-c2ccc(F)cc2)c1-c1ccc2ncc(C#N)n2c1` (centres unmarked) [69′, 6-(4-(4-fluorophenyl)-1-(3-hydroxybutyl)-1H-imidazol-5-yl)imidazo[1,2-a]pyridine-3-carbonitrile], the IC50 is reported as 151 nM. For `CC(C)OCCn1cnc(-c2ccc(F)cc2)c1-c1ccc2ncc(C(N)=O)n2n1` [124′, 6-(4-(4-fluorophenyl)-1-(2-isopropoxyethyl)-1H-imidazol-5-yl)imidazo[1,2-b]pyridazine-3-carboxamide], the IC50 was 2.5 nM. In the case of `CN1CCn2c(nc(-c3ccc(F)cc3)c2-c2ccc3ncc(C(N)=O)n3c2)C1` [Example 293′, 6-(2-(4-fluorophenyl)-7-methyl-5,6,7,8-tetrahydroimidazo[1,2-a]pyrazin-3-yl)imidazo[1,2-a]pyridine-3-carboxamide], the IC50 is reported as 43.3 nM. For `CC(C)Cn1cnc(-c2ccc(F)cc2)c1-c1ccc2ncc(C#N)n2c1` [82′, 6-(4-(4-fluorophenyl)-1-isobutyl-1H-imidazol-5-yl)imidazo[1,2-a]pyridine-3-carbonitrile], the IC50 was 71.6 nM. `N#Cc1cnc2ccc(-c3c(-c4ccc(F)cc4)nc4n3CCC4)cn12` [283B′, 6-(2-(4-fluorophenyl)-6,7-dihydro-5H-pyrrolo[1,2-a]imidazol-3-yl)imidazo[1,2-a]pyridine-3-carbonitrile] was tested, and the IC50 was 13.8 nM. With `Fc1ccc(-c2ncn(C3(C(F)F)CC3)c2-c2ccc3nccn3n2)cc1` [Example 189′, 6-(1-(1-(difluoromethyl)cyclopropyl)-4-(4-fluorophenyl)-1H-imidazol-5-yl)imidazo[1,2-b]pyridazine] the IC50 was 1.6 nM. Work on `N#Cc1cnc2ccc(-c3c(-c4ccc(F)cc4)ncn3C[C@@H](O)CO)cn12` [71′, (R)-6-(1-(2,3-dihydroxypropyl)-4-(4-fluorophenyl)-1H-imidazol-5-yl)imidazo[1,2-a]pyridine-3-carbonitrile] yielded an IC50 of 170 nM. Work on `CC(F)(F)Cn1cnc(-c2ccc(F)c(Cl)c2)c1-c1ccc2ncc(C#N)n2n1` [56′, 6-(4-(3-chloro-4-fluorophenyl)-1-(2,2-difluoropropyl)-1H-imidazol-5-yl)imidazo[1,2-b]pyridazine-3-carbonitrile] yielded an IC50 of 0.8 nM. In the case of `N=C(NO)c1cnc2ccc(-c3c(-c4ccc(F)cc4)ncn3CC(F)F)nn12` [Example 203′, 6-(1-(2,2-difluoroethyl)-4-(4-fluorophenyl)-1H-imidazol-5-yl)-N-hydroxyimidazo[1,2-b]pyridazine-3-carboximidamide], the IC50 is reported as 1.1 nM. `N#Cc1cnc2ccc(-c3c(-c4ccc(F)c(Cl)c4)ncn3[C@H]3CCC(F)(F)C3)nn12` [64′, (S)-6-(4-(3-chloro-4-fluorophenyl)-1-(3,3-difluorocyclopentyl)-1H-imidazol-5-yl)imidazo[1,2-b]pyridazine-3-carbonitrile] was tested, and the IC50 was 5.1 nM. `NC(=O)c1cnc2ccc(-c3c(-c4ccc(F)c(Cl)c4)ncn3CCCO)nn12` [142′, 6-(4-(3-chloro-4-fluorophenyl)-1-(3-hydroxypropyl)-1H-imidazol-5-yl)imidazo[1,2-b]pyridazine-3-carboxamide] gave an IC50 of 1.6 nM. `COc1ccc(-c2ncn(CC(F)F)c2-c2ccc3ncc(C#N)n3n2)cc1` [242′, 6-(1-(2,2-difluoroethyl)-4-(4-methoxyphenyl)-1H-imidazol-5-yl)imidazo[1,2-b]pyridazine-3-carbonitrile] gave an IC50 of 5 nM. Work on `FCCn1cnc(-c2ccc(F)c(Cl)c2)c1-c1ccc2nccn2c1` [187′, 6-(4-(3-chloro-4-fluorophenyl)-1-(2-fluoroethyl)-1H-imidazol-5-yl)imidazo[1,2-a]pyridine] yielded an IC50 of 3.3 nM. For `NC(=O)c1cnc2ccc(-c3c(-c4ccc(F)c(Cl)c4)ncn3CC(F)F)nn12` [113′, 6-(4-(3-chloro-4-fluorophenyl)-1-(2,2-difluoroethyl)-1H-imidazol-5-yl)imidazo[1,2-b]pyridazine-3-carboxamide], the IC50 was 0.9 nM. With `N#Cc1cnc2ccc(-c3c(-c4ccc(F)cc4)ncn3C[C@H](O)CO)cn12` [92′, (S)-6-(1-(2,3-dihydroxypropyl)-4-(4-fluorophenyl)-1H-imidazol-5-yl)imidazo[1,2-a]pyridine-3-carbonitrile] the IC50 was 266 nM. Molecule `NC(=O)c1cnc2ccc(-c3c(-c4ccc(F)c(Cl)c4)ncn3C3CC(F)C3)nn12` (centres unmarked) [141′, 6-(4-(3-chloro-4-fluorophenyl)-1-(3-fluorocyclobutyl)-1H-imidazol-5-yl)imidazo[1,2-b]pyridazine-3-carboxamide] has an IC50 of 0.8 nM. `N#Cc1cnc2ccc(-c3c(-c4ccc(F)cc4)ncn3C3COC3)nn12` [13′, 6-(4-(4-fluorophenyl)-1-(oxetan-3-yl)-1H-imidazol-5-yl)imidazo[1,2-b]pyridazine-3-carbonitrile] gave an IC50 of 17 nM. `CC(F)(F)Cn1cnc(-c2ccc(F)c(Cl)c2)c1-c1ccc2ncc(C(N)=O)n2n1` [151′, 6-(4-(3-chloro-4-fluorophenyl)-1-(2,2-difluoropropyl)-1H-imidazol-5-yl)imidazo[1,2-b]pyridazine-3-carboxamide] was tested, and the IC50 was 0.6 nM. Work on `N#Cc1cnc2ccc(-c3c(-c4cc(Cl)ccc4F)ncn3CC(F)F)cn12` [228′, 6-(4-(5-chloro-2-fluorophenyl)-1-(2,2-difluoroethyl)-1H-imidazol-5-yl)imidazo[1,2-a]pyridine-3-carbonitrile] yielded an IC50 of 3.7 nM. Molecule `N#Cc1cnc2ccc(-c3c(-c4ccc(F)c(Cl)c4)ncn3CCC3CCC3)nn12` [40′, 6-(4-(3-chloro-4-fluorophenyl)-1-(2-cyclobutylethyl)-1H-imidazol-5-yl)imidazo[1,2-b]pyridazine-3-carbonitrile] has an IC50 of 0.6 nM. With `N#Cc1cccc(-c2ncn(CC(F)F)c2-c2ccc3ncc(C#N)n3n2)c1` [Example 236] the IC50 was 2.1 nM. With `CCn1cnc(-c2ccc(F)c(Cl)c2)c1-c1ccc2ncc(C#N)n2c1` [94′, 6-(4-(3-chloro-4-fluorophenyl)-1-ethyl-1H-imidazol-5-yl)imidazo[1,2-a]pyridine-3-carbonitrile] the IC50 was 13.1 nM. `N#Cc1cnc2ccc(-c3c(-c4ccc(N)cc4)ncn3CC(F)F)nn12` [264′, 6-(4-(4-aminophenyl)-1-(2,2-difluoroethyl)-1H-imidazol-5-yl)imidazo[1,2-b]pyridazine-3-carbonitrile] gave an IC50 of 516 nM. Work on `Fc1ccc(-c2ncn([C@@H]3CCC(F)(F)C3)c2-c2ccc3nccn3c2)cc1Cl` [185′, (R)-6-(4-(3-chloro-4-fluorophenyl)-1-(3,3-difluorocyclopentyl)-1H-imidazol-5-yl)imidazo[1,2-a]pyridine] yielded an IC50 of 30.1 nM. For `NC(=O)c1cnc2ccc(-c3c(-c4ccc(F)c(Cl)c4)ncn3C[C@@H]3CCCO3)nn12` [145′, (S)-6-(4-(3-chloro-4-fluorophenyl)-1-((tetrahydrofuran-2-yl)methyl)-1H-imidazol-5-yl)imidazo[1,2-b]pyridazine-3-carboxamide], the IC50 was 2.2 nM. `N#Cc1cnc2ccc(-c3c(-c4ccccc4CO)ncn3CC(F)F)nn12` [253′, 6-(1-(2,2-difluoroethyl)-4-(2-(hydroxymethyl)phenyl)-1H-imidazol-5-yl)imidazo[1,2-b]pyridazine-3-carbonitrile] showed an IC50 of 7 nM. Work on `N#Cc1cnc2ccc(-c3c(-c4ccc(F)cc4)ncn3C3(C#N)CC3)nn12` [Example 267′, 6-(1-(1-cyanocyclopropyl)-4-(4-fluorophenyl)-1H-imidazol-5-yl)imidazo[1,2-b]pyridazine-3-carbonitrile, TFA] yielded an IC50 of 0.3 nM. In the case of `N#Cc1cnc2ccc(-c3c(-c4ccc(F)cc4)ncn3CCF)nn12` [9′, 6-(1-(2-fluoroethyl)-4-(4-fluorophenyl)-1H-imidazol-5-yl)imidazo[1,2-b]pyridazine-3-carbonitrile], the IC50 is reported as 1.9 nM.
